Laboratory results as given in patent US20250017940A1, “SELECTIVE PEPTIDOMIMETIC MODULATORS OF CAV2.2 (N-TYPE) VOLTAGE-GATED CALCIUM CHANNELS AND USES THEREOF” (New York University, priority 2023, published 2025).

System: Cav3 (T-type) calcium channels
Assay: Whole-cell patch-clamp, isolated T-type Ca2+ currents in DRG neurons
Type: cell-based, rat
Description: Recordings were obtained from acutely dissociated DRG neurons as described earlier (Bellampalli et al., 2019). Patch-clamp recordings were performed at room temperature (22-24° C.). Currents were recorded using an EPC 10 Amplifier-HEKA (HEKA Elektronik, Ludwigshafen, Germany) linked to a computer with Patchmaster software. DRG neurons were incubated overnight (˜16-24 hours) with 20 μM of CBD3063.
For total calcium current (ICa^2+) recordings, the external solution consisted of the following (in mM): 110 N-methyl-D-glucamine, 10 BaCl2, 30 TEA-Cl, 10 HEPES, 10 glucose, and 0.001 TTX (pH 7.29 adjusted with TEA-OH, and mOsm/L=310). Patch pipettes were filled with an internal solution containing (in mM): 150 CsCl2, 10 HEPES, 5 Mg-ATP, and 5 BAPTA, (pH 7.2 adjusted with CsOH, and mOsm/L-305). Peak Ca^2+ current was acquired by applying 200-millisecond voltage steps from −70 to +60 mV in 10-mV increments from a holding potential of −90 mV to obtain the current-voltage (I-V) relation. To measure the different subtypes of Ca^2+ channels, DRGs were treated with a Cav inhibitor cocktail omitting the inhibitor specific to the subtype being tested (e.g., to measure Cav2.2 currents, ω-conotoxin GVIA is omitted): Nifedipine (10 μM, L-type), ω-Conotoxin-GVIA (500 nM, […]) (Feng, et al., 2001), SNX482 (200 nM, R-type) (Newcomb et al., 1998), ω-agatoxin (200 nM, P/Q-type) (Mintz et al., 1992), TTA-P2 (1 μM, T-type) (Choe et al., 2011).
Normalization of currents to each cell's capacitance (pF) was performed to allow for collection of current density data. For I-V curves, functions were fitted to data using a non-linear least squares analysis. I-V curves were fitted using double Boltzmann functions:
where x is the pre-pulse potential, V1/2 is the mid-point potential, and k is the corresponding slope factor for single Boltzmann functions. Double Boltzmann fits were used to describe the shape of the curve, not to imply the existence of separate channel populations. Numbers 1 and 2 simply indicate first and second mid-points; a along with g are fitting parameters.
Activation curves were obtained from the I-V curves by dividing the peak current at each depolarizing step by the driving force according to the equation: G=I/(Vmem-Erev), where I is the peak current, Vmem is the membrane potential and Erev is the reversal potential. The conductance (G) was normalized against the maximum conductance (Gmax). For total and the different subtypes of Ca^2+ currents, steady-state inactivation (SSI) curves were obtained by applying an H-infinity protocol that consisted of 1.5-seconds conditioning pre-pulses from −100 to +30 mV in 10-mV increments followed by a 20-millisecond test pulse to +10 mV. For Na^+ currents, SSI curves were obtained by applying an H-infinity protocol that consisted of 1-second conditioning pre-pulses from −120 to +10 mV in 10-mV increments followed by a 200-millisecond test pulse to +10 mV. Inactivation curves were obtained by dividing the peak current recorded at the test pulse by the maximum current (Imax). Activation and SSI curves were fitted with the Boltzmann equation.

[1] = 20 μM overnight, mean ± SEM (n cells)

CC(=O)N[C@@H]1CCCN(C(=O)NCCCNc2ccccn2)C1 [CBD3063, (3R)-3-acetamido-N-[3-(pyridin-2-ylamino)propyl]piperidine-1-carboxamide]
effect on Ca2+ influx through Cav3 (T-type) channels (current density-voltage curve, peak current density) (20 μM overnight vs 0.1% DMSO): does not alter
T-type Ca2+ currents, activation V1/2 [1]: −10.982 ± 1.992 (10) mV
T-type Ca2+ currents, activation k (slope factor) [1]: 9.924 ± 1.628 (10)
T-type Ca2+ currents, inactivation V1/2 [1]: −35.122 ± 2.752 (10) mV
T-type Ca2+ currents, inactivation k (slope factor) [1]: −12.929 ± 2.490 (10)
